Counter-ions that a name gives are not always drawn.
Biological target: IDO1 (Homo sapiens, UniProt P14902)
Experiment: IDO1 Human Whole Blood Assay
Type: cell-based
Conditions: LPS and IFNγ 100 ng/mL, 18 h, kynurenine by LC/MS/MS, read-out: Human Whole Blood Potency, IC50
Method: IDO1 Human Whole Blood Assay
Compounds to be tested were serially diluted in ten 3-fold steps in DMSO starting from 10 mM. […] LPS and IFNγ was prepared in RPMI to a 10× of final conc. (1000 ng/mL), final concentration is 100 ng/mL.
240 μL of blood was transferred to each of the wells of a v-bottom 96 well plate. 30 μL of compound was transferred from intermediate dilution plate, and incubated for 15 min. 30 μL from stimulants was then transferred to blood and mixed thoroughly. Plate was covered with breathable membrane and incubated at 37° C. for overnight (18 h).
On day 2 isotope labeled standard of kynurenine and tryptophan was made in water at 10× concentration and 30 μL was added to the blood at 3 μM final concentration. The assay plates were centrifuged at 300×G for 10 min with no brake to separate plasma from red blood cells. 60 μL of plasma samples was removed without disturbing red blood cells. Plasma was diluted with RPMI in 1:1 ratio and proteins were precipitated out with two volume of
Acetonitrile. The plates were centrifuged at 4000×G for 60 min. 20 μL of supernatant was carefully transferred to a 384 well plate contain 40 μL of 0.1% formic acid in water and analyzed by LC/MS/MS.
LC/MS/MS analyses were performed using Thermo Fisher's LX4-TSQ Quantum Ultra system. This system consists of four Agilent binary high-performance liquid chromatography (HPLC) pumps and a TSQ Quantum Ultra triple quadrupole MS/MS instrument. For each sample, 5 μL were injected onto an Atlantis T3 column (2.1 mm×150 mm, 3 μm particle size) from Waters. The mobile phase gradient pumped at 0.8 mL/min was used to elute the analytes from the column at 25° C. […] Mobile phase A consisted of 0.1% formic acid in water. Mobile phase B consisted of 0.1% of formic acid in acetonitrile. Data was acquired in positive mode using a HESI interface. The operational parameters for the TSQ Quantum Ultra instrument were a spray voltage of 4000 V, capillary temperature of 380° C., vaporizer temperature 400° C., shealth gas 60 arbitrary units, Aux gas 20 arbitrary units, tube lens 85 and collision gas 1.2 mTorr. SRM chromatograms of kynurenine (Q1: 209.2>Q3:94.0) and internal standard (Q1: 215.3>Q3:98.2) were collected for 90 sec. The peak area was integrated by Xcalibur Quan software. The ratios between the kynurenine generated in the reaction and 2D6-Kynurenine spiked-in internal standard were used to generate percentage inhibition and IC50 values. Compounds were titrated and IC50's were calculated by 4 parameter sigmoidal curve fitting formula.
The biological activity data of selective compounds using the IDO1 human whole blood assay described above are summarized in the table below.

Sequence of IDO1 (P14902 whole entry): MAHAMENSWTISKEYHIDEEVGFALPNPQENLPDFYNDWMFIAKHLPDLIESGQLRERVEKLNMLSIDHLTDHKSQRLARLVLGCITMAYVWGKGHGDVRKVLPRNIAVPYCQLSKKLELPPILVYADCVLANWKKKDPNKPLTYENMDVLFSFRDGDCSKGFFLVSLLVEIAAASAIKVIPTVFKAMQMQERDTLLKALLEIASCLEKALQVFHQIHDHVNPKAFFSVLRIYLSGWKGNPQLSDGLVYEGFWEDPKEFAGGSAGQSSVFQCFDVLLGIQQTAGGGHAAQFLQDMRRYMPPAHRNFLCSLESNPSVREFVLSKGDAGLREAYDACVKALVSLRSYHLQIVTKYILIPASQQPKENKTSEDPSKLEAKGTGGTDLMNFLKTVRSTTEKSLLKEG

SMILES	IC50 [nM]
O=C(NC1(c2ccc(-c3cnc(C(F)(F)F)cc3CO)cc2)CCC1)c1ccc(F)cc1 [Example 53]	1000
Cc1cc(C2CC2)ncc1-c1ccc(C2(NC(=O)c3ccc(C#N)cc3)CCC2)nc1 [Example 42, 4-Cyano-N-(1-(6′-cyclopropyl-4′-methyl-[3,3′-bipyridin]-6-yl)cyclobutyl)benzamide]	392
N#Cc1ccc(C(=O)NC2(c3ccc(-c4cnc(C(F)(F)F)cc4CO)cc3)CCC2)cc1 [Example 35, 4-cyano-N-(1-(4-(4-(hydroxymethyl)-6-(trifluoromethyl)pyridin-3-yl)phenyl)cyclobutyl)benzamide]	1070
C[C@@H](O)c1cc(C(F)(F)F)ncc1-c1ccc(C2(NC(=O)c3ccc(F)cc3)CC2)cc1 [Example 51, (R)-4-fluoro-N-(1-(4-(4-(1-hydroxyethyl)-6-(trifluoromethyl)pyridin-3-yl)phenyl)cyclopropyl)benzamide, 2,2,2-trifluoroacetate salt]	233
O=C(NC1(c2ccc(-c3cnc(OC4CC4)cc3CO)cc2)CC1)c1ccc(F)cc1 [Example 48, N-(1-(4-(6-cyclopropoxy-4-(hydroxymethyl)pyridin-3-yl)phenyl)cyclopropyl)-4-fluorobenzamide]	922
CC1CC1(NC(=O)c1ccc(F)cc1)c1ccc(-c2cnc(C(F)(F)F)cc2C(C)(C)O)nc1 (single isomer, unassigned) [Example 60]	210
CC(C)(O)c1cc(OC2CC2)ncc1-c1ccc(C2(NC(=O)c3ccc(F)cc3)CC2)cc1 [Example 47, N-(1-(4-(6-cyclopropoxy-4-(2-hydroxypropan-2-yl)pyridin-3-yl)phenyl)cyclopropyl)-4-fluorobenzamide]	127
CC1CC1(NC(=O)c1ccc(F)cc1)c1ccc(-c2cnc(C(F)(F)F)cc2C(C)(C)O)nc1 (single isomer, unassigned) [Example 58]	284

Further compounds by falling IC50, results first:

IC50 [nM]	SMILES
703	O=C(NC1(c2ccc(-c3cnc(C(F)(F)F)cc3CO)cc2)CC1)c1ccc(Cl)cc1 [Example 46, 4-chloro-N-(1-(4-(4-(hydroxymethyl)-6-(trifluoromethyl)pyridin-3-yl)phenyl)cyclopropyl)benzamide]
587	N#Cc1ccc(C(=O)NC2(c3ccc(-c4ccc(C5CC5)nc4CO)cc3)CCC2)cc1 [Example 25, 4-cyano-N-(1-(4-(6-cyclopropyl-2-(hydroxymethyl)pyridin-3-yl)phenyl)cyclobutyl)benzamide]
579	CC(C)Oc1cc(CO)c(-c2ccc(C3(NC(=O)c4ccc(F)cc4)CC3)cc2)cn1 [Example 49, 4-fluoro-N-(1-(4-(4-(hydroxymethyl)-6-isopropoxypyridin-3-yl)phenyl)cyclopropyl)benzamide]
398	Cc1cc(C2CC2)ncc1-c1ccc(C2(NC(=O)c3ccc(C#N)cc3)CCC2)cc1F [Example 7, 4-Cyano-N-(1-(4-(6-cyclopropyl-4-methylpyridin-3-yl)-3-fluorophenyl)cyclobutyl)benzamide]
361	CC1CC1(NC(=O)c1ccc(F)cc1)c1ccc(-c2cnc(C(F)(F)F)cc2C(C)(C)O)nc1 (single isomer, unassigned) [Example 56, 4-fluoro-N-(1-(4′-(2-hydroxypropan-2-yl)-6′-(trifluoromethyl)-[2,3′-bipyridin]-5-yl)-2-methylcyclopropyl)benzamide]
336	CC(C)(O)c1cc(OC2CC2)ncc1-c1ccc(C2(NC(=O)c3ccc(F)cc3)CCC2)cc1 [Example 54, N-(1-(4-(6-cyclopropoxy-4-(2-hydroxypropan-2-yl)pyridin-3-yl)phenyl)cyclobutyl)-4-fluorobenzamide]
308	COc1cc(C)c(-c2ccc(C3(NC(=O)c4ccc(C#N)cc4)CCC3)cc2)c(C)n1 [Example 36, 4-cyano-N-(1-(4-(6-methoxy-2,4-dimethylpyridin-3-yl)phenyl)cyclobutyl)benzamide]
246	Cc1cc(C2CC2)ncc1-c1ccc(C2(NC(=O)c3ccc(C#N)cc3)CCC2)cc1 [Example 12, 4-cyano-N-(1-(4-(6-cyclopropyl-4-methylpyridin-3-yl)phenyl)cyclobutyl)benzamide]
186	C[C@H](O)c1cc(C(F)(F)F)ncc1-c1ccc(C2(NC(=O)c3ccc(F)cc3)CC2)cc1 [Example 50, (S)-4-fluoro-N-(1-(4-(4-(1-hydroxyethyl)-6-(trifluoromethyl)pyridin-3-yl)phenyl)cyclopropyl)benzamide]
171	CC1CC1(NC(=O)c1ccc(F)cc1)c1ccc(-c2cnc(C(F)(F)F)cc2C(C)(C)O)nc1 (single isomer, unassigned) [Example 59]
152	CC(C)(O)c1cc(C(F)(F)F)ncc1-c1ccc(C2(NC(=O)c3ccc(F)cc3)CCC2)cc1 [Example 52, 4-fluoro-N-(1-(4-(4-(2-hydroxypropan-2-yl)-6-(trifluoromethyl)pyridin-3-yl)phenyl)cyclobutyl)benzamide]
